# Reference: US8247211B2, “Glycopeptide antibiotics” (American Cyanamid Company, priority 2001, dated 2012)
# Key:
# Assay in all cases: In vitro antibacterial evaluation: minimum inhibitory concentration (MIC), broth dilution method
# Assay type in all cases: cell-based
# [1] = test system: Enterococcus sp.
# Procedure: (§1) The minimum inhibitory concentration (MIC), the lowest concentration of the antibiotic which inhibits growth of the test organism, is determined by the broth dilution method using Muller-Hinton II […] (Baltimore Biological Laboratories) following the recommendations of the National Committee for Clinical Laboratory Standards [Methods for dilution antimicrobial susceptibility tests for bacteria that grow aerobically, approved standard M7-A2, National Committee for Clinical Laboratory Standards, Villanova, Pa].
# (§2) An inoculum level of 5×10^5 CFU/mL, and a range of antibiotic concentrations (64-0.06 μg/mL) is used. […] The test organisms include a spectrum of Gram-positive bacteria comprised of Staphylococcus sp., Streptococcus sp. and Enterococcus sp. These organisms include recent clinical isolates that are resistant to methicillin, penicillin and/or vancomycin.
# [2] = test system: Staphylococcus sp.; conditions: 18 hours at 35° C.
# Procedure: as §1, §2
# [3] = test system: Streptococcus sp.
# Procedure: as §1, §2
# [4] = test system: Escherichia coli
# Procedure: as §1, §2
# [5] = broth dilution, inoculum 5×10^5 CFU/mL, 18 hours at 35° C.
structure (smiles),measurement,setting,value
"CC(c1ccccc1)C1NC(=O)CNC(=O)C(CO)NC(=O)C(C(O)C2CNC(=N)N2C2OC(CO)C(O)C(O)C2O)NC(=O)C(C(O)C2CNC(=N)N2)NC(=O)C(Cc2ccc(OC3OC(CO)C(OC4OC5COC(c6ccc(C(=O)c7ccccc7)cc6)OC5C(O)C4O)C(O)C3O)cc2)NC1=O (stereo not drawn) [Example 173, Cyclo[glycyl-β-methylphenylalanyl-O-[4-O-[4,6-O-[4-benzoylbenzylidene)hexopyranosyl]-hexopyranosyl]tyrosyl-3-(2-iminoimidazolidin-4-yl)seryl-3-(3-hexopyranosyl-2-iminoimidazolidin-4-yl)serylseryl]]",MIC Enterococcus avium (GC 4558),[1]; [5],1 µg/mL
same,MIC Enterococcus faecalis (ATCC 29212),[1]; [5],1 µg/mL
same,MIC Enterococcus faecalis (GC 2242),[1]; [5],2 µg/mL
same,MIC Enterococcus faecalis (GC 2691),[1]; [5],2 µg/mL
same,MIC Enterococcus faecalis (GC 3059),[1]; [5],2 µg/mL
same,MIC Enterococcus faecalis (GC 4552),[1]; [5],2 µg/mL
same,MIC Enterococcus faecalis (GC 4553),[1]; [5],2 µg/mL
same,MIC Enterococcus faecalis (GC 4554),[1]; [5],2 µg/mL
same,MIC Enterococcus faecalis (GC 6189),[1]; [5],1 µg/mL
same,MIC Enterococcus faecium (GC 2243),[1]; [5],2 µg/mL
same,MIC Enterococcus faecium (GC 4556),[1]; [5],1 µg/mL
same,MIC Enterococcus faecium (GC 4557),[1]; [5],2 µg/mL
same,MIC Enterococcus faecalis (ATCC 29212),[1]; strain ATCC 29212,1 µg/mL
same,MIC Enterococcus faecalis (GC 2242),[1]; strain GC 2242,2 µg/mL
same,MIC Enterococcus faecium (GC 2243),[1]; strain GC 2243,2 µg/mL
same,MIC Enterococcus faecalis (GC 2691),[1]; strain GC 2691,2 µg/mL
same,MIC Enterococcus faecalis (GC 3059),[1]; strain GC 3059,2 µg/mL
same,MIC Enterococcus faecalis (GC 4552),[1]; strain GC 4552,2 µg/mL
same,MIC Enterococcus faecalis (GC 4553),[1]; strain GC 4553,2 µg/mL
same,MIC Enterococcus faecalis (GC 4554),[1]; strain GC 4554,2 µg/mL
same,MIC Enterococcus faecium (GC 4556),[1]; strain GC 4556,1 µg/mL
same,MIC Enterococcus faecium (GC 4557),[1]; strain GC 4557,2 µg/mL
same,MIC Enterococcus avium (GC 4558),[1]; strain GC 4558,1 µg/mL
same,MIC Enterococcus faecalis (GC 6189),[1]; strain GC 6189,1 µg/mL
same,MIC Coagulase Negative Staphylococcus (GC 4547),"[2]; broth dilution, 5×10^5 CFU/mL",2 µg/mL
same,MIC Coagulase Negative Staphylococcus (GC 4548),"[2]; broth dilution, 5×10^5 CFU/mL",0.5 µg/mL
same,MIC Coagulase Negative Staphylococcus (GC 4549),"[2]; broth dilution, 5×10^5 CFU/mL",0.25 µg/mL
same,MIC Coagulase Negative Staphylococcus (GC 4551),"[2]; broth dilution, 5×10^5 CFU/mL",0.5 µg/mL
same,MIC Coagulase Negative Staphylococcus (GC 6257),"[2]; broth dilution, 5×10^5 CFU/mL",0.5 µg/mL
same,MIC Staphylococcus aureus (ATCC 29213),"[2]; broth dilution, 5×10^5 CFU/mL",1 µg/mL
same,MIC Staphylococcus aureus (GC 1131),"[2]; broth dilution, 5×10^5 CFU/mL",2 µg/mL
same,MIC Staphylococcus aureus (GC 3051),"[2]; broth dilution, 5×10^5 CFU/mL",0.5 µg/mL
same,MIC Staphylococcus aureus (GC 3053),"[2]; broth dilution, 5×10^5 CFU/mL",1 µg/mL
same,MIC Staphylococcus aureus (GC 4541),"[2]; broth dilution, 5×10^5 CFU/mL",0.5 µg/mL
same,MIC Staphylococcus aureus (GC 4542),"[2]; broth dilution, 5×10^5 CFU/mL",0.5 µg/mL
same,MIC Staphylococcus aureus (GC 4544),"[2]; broth dilution, 5×10^5 CFU/mL",2 µg/mL
same,MIC Staphylococcus aureus (GC 4545),"[2]; broth dilution, 5×10^5 CFU/mL",2 µg/mL
same,MIC Staphylococcus aureus-SMITH (GC 4543),"[2]; broth dilution, 5×10^5 CFU/mL",0.5 µg/mL
same,MIC Staphylococcus haemolyticus (GC 4546),"[2]; broth dilution, 5×10^5 CFU/mL",1 µg/mL
same,MIC Staphylococcus aureus (ATCC 29213),"[2]; strain ATCC 29213, broth dilution",1 µg/mL
same,MIC Staphylococcus aureus (GC 1131),"[2]; strain GC 1131, broth dilution",2 µg/mL
same,MIC Staphylococcus aureus (GC 3051),"[2]; strain GC 3051, broth dilution",0.5 µg/mL
same,MIC Staphylococcus aureus (GC 3053),"[2]; strain GC 3053, broth dilution",1 µg/mL
same,MIC Staphylococcus aureus (GC 4541),"[2]; strain GC 4541, broth dilution",0.5 µg/mL
same,MIC Staphylococcus aureus (GC 4542),"[2]; strain GC 4542, broth dilution",0.5 µg/mL
same,MIC Staphylococcus aureus (GC 4544),"[2]; strain GC 4544, broth dilution",2 µg/mL
same,MIC Staphylococcus aureus (GC 4545),"[2]; strain GC 4545, broth dilution",2 µg/mL
same,MIC Streptococcus agalactiae (GC 4564),[3]; [5],<0.12 µg/mL
same,MIC Streptococcus pneumoniae (ATCC 6301),[3]; [5],<0.12 µg/mL
same,MIC Streptococcus pneumoniae (GC 1894),[3]; [5],<0.12 µg/mL
same,MIC Streptococcus pneumoniae (GC 4565),[3]; [5],<0.12 µg/mL
same,MIC Streptococcus pyogenes (GC 4563),[3]; [5],<0.12 µg/mL
same,MIC Streptococcus pneumoniae (ATCC 6301),[3]; strain ATCC 6301,<0.12 µg/mL
same,MIC Streptococcus pneumoniae (GC 1894),[3]; strain GC 1894,<0.12 µg/mL
same,MIC Streptococcus pyogenes (GC 4563),[3]; strain GC 4563,<0.12 µg/mL
same,MIC Streptococcus agalactiae (GC 4564),[3]; strain GC 4564,<0.12 µg/mL
same,MIC Streptococcus pneumoniae (GC 4565),[3]; strain GC 4565,<0.12 µg/mL
same,MIC Escherichia coli (ATCC 25922),[4]; strain ATCC 25922,32 µg/mL
same,MIC Escherichia coli (GC 4559),[4]; strain GC 4559,16 µg/mL
same,MIC Escherichi coli (GC 4560),[4]; strain GC 4560,0.5 µg/mL
"COc1ccc(COC2C(CO)OC(OC3C(CO)OC(Oc4ccc(CC5NC(=O)C(C(C)c6ccccc6)NC(=O)CNC(=O)C(CO)NC(=O)C(C(O)C6CNC(=N)N6C6OC(CO)C(O)C(O)C6O)NC(=O)C(C(O)C6CNC(=N)N6)NC5=O)cc4)C(O)C3O)C(O)C2O)cc1OCc1ccccc1 (stereo not drawn) [Example 239a, Cyclo[glycyl-β-methylphenylalanyl-O-[4-O-[4-O-[4-methoxy-3-(phenylmethoxy)benzyl]-hexopyranosyl]hexopyranosyl]tyrosyl-3-(2-iminoimidazolidin-4-yl)seryl-3-(3-hexopyranosyl-2-iminoimidazolidin-4-yl)serylseryl]]",MIC Enterococcus avium (GC 4558),"[1]; Enterococcus avium (GC 4558), 18 hours at 35° C.",8 µg/mL
same,MIC Enterococcus faecalis (ATCC 29212),"[1]; Enterococcus faecalis (ATCC 29212), 18 hours at 35° C.",8 µg/mL
same,MIC Enterococcus faecalis (GC 2242),"[1]; Enterococcus faecalis (GC 2242), 18 hours at 35° C.",8 µg/mL
same,MIC Enterococcus faecalis (GC 2691),"[1]; Enterococcus faecalis (GC 2691), 18 hours at 35° C.",8 µg/mL
same,MIC Enterococcus faecalis (GC 3059),"[1]; Enterococcus faecalis (GC 3059), 18 hours at 35° C.",8 µg/mL
same,MIC Enterococcus faecalis (GC 4552),"[1]; Enterococcus faecalis (GC 4552), 18 hours at 35° C.",8 µg/mL
same,MIC Enterococcus faecalis (GC 4553),"[1]; Enterococcus faecalis (GC 4553), 18 hours at 35° C.",8 µg/mL
same,MIC Enterococcus faecalis (GC 4554),"[1]; Enterococcus faecalis (GC 4554), 18 hours at 35° C.",16 µg/mL
same,MIC Enterococcus faecalis (GC 6189),"[1]; Enterococcus faecalis (GC 6189), 18 hours at 35° C.",8 µg/mL
same,MIC Enterococcus faecium (GC 2243),"[1]; Enterococcus faecium (GC 2243), 18 hours at 35° C.",8 µg/mL
same,MIC Enterococcus faecium (GC 4556),"[1]; Enterococcus faecium (GC 4556), 18 hours at 35° C.",8 µg/mL
same,MIC Enterococcus faecium (GC 4557),"[1]; Enterococcus faecium (GC 4557), 18 hours at 35° C.",4 µg/mL
same,MIC Enterococcus faecalis (GC 2242),[1]; [5],8 µg/mL
same,MIC Enterococcus faecalis (GC 2691),[1]; [5],8 µg/mL
same,MIC Enterococcus faecalis (GC 3059),[1]; [5],8 µg/mL
same,MIC Coagulase Negative Staphylococcus (GC 4547),[2]; Coagulase Negative Staphylococcus (GC 4547),2 µg/mL
same,MIC Coagulase Negative Staphylococcus (GC 4548),[2]; Coagulase Negative Staphylococcus (GC 4548),1 µg/mL
same,MIC Coagulase Negative Staphylococcus (GC 4549),[2]; Coagulase Negative Staphylococcus (GC 4549),2 µg/mL
same,MIC Coagulase Negative Staphylococcus (GC 4551),[2]; Coagulase Negative Staphylococcus (GC 4551),2 µg/mL
same,MIC Coagulase Negative Staphylococcus (GC 6257),[2]; Coagulase Negative Staphylococcus (GC 6257),2 µg/mL
same,MIC Staphylococcus aureus (ATCC 29213),[2]; Staphylococcus aureus (ATCC 29213),4 µg/mL
same,MIC Staphylococcus aureus (GC 1131),[2]; Staphylococcus aureus (GC 1131),4 µg/mL
same,MIC Staphylococcus aureus (GC 3051),[2]; Staphylococcus aureus (GC 3051),2 µg/mL
same,MIC Staphylococcus aureus (GC 3053),[2]; Staphylococcus aureus (GC 3053),4 µg/mL
same,MIC Staphylococcus aureus (GC 4541),[2]; Staphylococcus aureus (GC 4541),4 µg/mL
same,MIC Staphylococcus aureus (GC 4542),[2]; Staphylococcus aureus (GC 4542),4 µg/mL
same,MIC Staphylococcus aureus (GC 4544),[2]; Staphylococcus aureus (GC 4544),4 µg/mL
same,MIC Staphylococcus aureus (GC 4545),[2]; Staphylococcus aureus (GC 4545),4 µg/mL
same,MIC Staphylococcus aureus-SMITH (GC 4543),[2]; Staphylococcus aureus-SMITH (GC 4543),2 µg/mL
same,MIC Staphylococcus haemolyticus (GC 4546),[2]; Staphylococcus haemolyticus (GC 4546),2 µg/mL
same,MIC Streptococcus agalactiae (GC 4564),"[3]; Streptococcus agalactiae (GC 4564), 18 hours at 35° C.",1 µg/mL
same,MIC Streptococcus pneumoniae (ATCC 6301),"[3]; Streptococcus pneumoniae (ATCC 6301), 18 hours at 35° C.",0.25 µg/mL
same,MIC Streptococcus pneumoniae (GC 1894),"[3]; Streptococcus pneumoniae (GC 1894), 18 hours at 35° C.",<0.06 µg/mL
same,MIC Streptococcus pneumoniae (GC 4565),"[3]; Streptococcus pneumoniae (GC 4565), 18 hours at 35° C.",0.25 µg/mL
same,MIC Streptococcus pyogenes (GC 4563),"[3]; Streptococcus pyogenes (GC 4563), 18 hours at 35° C.",2 µg/mL
same,MIC Streptococcus agalactiae (GC 4564),[3]; [5],1 µg/mL
same,MIC Streptococcus pneumoniae (ATCC 6301),[3]; [5],0.25 µg/mL
same,MIC Streptococcus pneumoniae (GC 1894),[3]; [5],<0.06 µg/mL
same,MIC Streptococcus pneumoniae (GC 4565),[3]; [5],0.25 µg/mL
same,MIC Streptococcus pyogenes (GC 4563),[3]; [5],2 µg/mL
same,MIC Escherichia coli (ATCC 25922),"[4]; Escherichia coli (ATCC 25922), 18 hours at 35° C.",>64 µg/mL
same,MIC Escherichia coli (GC 4559),"[4]; Escherichia coli (GC 4559), 18 hours at 35° C.",>64 µg/mL
same,MIC Escherichia coli (GC 4560),"[4]; Escherichia coli (GC 4560), 18 hours at 35° C.",2 µg/mL
